Reference: patent US20240228499A1, “MASP-2 INHIBITORS AND METHODS OF USE” (Omeros Corporation, priority 2022, published 2024)
Where a name gives a salt, the structure may show the parent alone.

Experiments:
[1] = target: T1, MASP-2 (CCP1-CCP2-SP) (Homo sapiens, UniProt O00187); assay: Enzymatic assay for MASP-2 inhibitory activity (fluorogenic substrate); format: biochemical; details: room temperature, 20 mM Hepes pH 7.4, 20 min
T1 construct: 15 μL of Enzyme MASP-2 (CCP1-CCP2-SP) in Assay Buffer
Description: The MASP-2 assay utilizes a fluorogenic substrate, based on the cleavage site for its natural substrate C2. The assay was run at room temperature in an assay buffer containing 20 mM HEPES, pH 7.4, 140 mM NaCl and 0.1% Tween 20. Assay parameters were adjusted such that the assay was linear with respect to time, enzyme, and substrate concentrations. Under the optimized assays conditions, IC50 values were equivalent to Ki values, except in the few cases of “tight binding” inhibitors. Cases of “tight binding” or possible “slow binding” inhibitors were handled by the methods described in Copeland R. A. (2013) Evaluation of Enzyme Inhibitors in Drug Discovery. 2nd Ed., John Wiley and Sons, Inc., Chapters 5-7.
The MASP-2 assay protocol was carried out as follows. Test compounds were serially diluted in DMSO and then 100 nL of each dilution was transferred to the assay plate(s). 10 μL of Assay Buffer was added, followed by 15 μL of Enzyme MASP-2 (CCP1-CCP2-SP) in Assay Buffer. 15 μL of Substrate in Assay Buffer was then added and the mixture was mixed to start the reaction. After 20 min at room temperature, 15 μL of a stop solution (0.1 M acetic acid) was added, the sample was mixed, and the plates were read on a SpectraMax i3× Microplate Reader with the data exported as an Excel file. Each assay plate included a “no inhibitor” (DMSO only) control, a “no enzyme” control, and a reference inhibitor control. % Activity values=100*(average test comp. fluorescence−average “no enzyme” fluorescence)/(average “DMSO only” fluorescence−average “no enzyme” fluorescence). IC50 and Ki replicate values were very reproducible, with values well within +2-fold.

[2] = target: T2, human a-thrombin (Homo sapiens, UniProt P00734); assay: Enzymatic assay for thrombin (fluorogenic peptide substrate Boc-VPR-AMC); format: biochemical; details: room temperature, 20 mM Hepes pH 7.4, 20 min
T2 construct: enzyme (human a-thrombin (BioPharm® Lab.)); purchased BioPharm Lab
Description: The thrombin assay utilizes a fluorogenic peptide substrate (Boc-VPR-AMC (R&D Systems) and was run at room temperature in an assay buffer containing 20 mM Hepes, pH 7.4, 140 mM NaCl and 0.1% Tween 20. Assay parameters were adjusted such that the assay was linear with respect to time, enzyme, and substrate concentrations. Under these optimized assays conditions, IC50 values were equivalent to Ki values, except in a few cases of “tight binding” inhibitors. Cases of “tight binding” or possible “slow binding” inhibitors were handled by the methods described in Copeland R.A. (2013) Evaluation of Enzyme Inhibitors in Drug Discovery. 2nd Ed. John Wiley and Sons, Inc., Chapters 5-7.
The thrombin assay protocol was carried out as follows. Test compounds were serially diluted in DMSO and then 100 nL of each dilution was transferred to the assay plate(s). 10 μL of Assay Buffer was added, followed by 15 μL of enzyme (human a-thrombin (BioPharm® Lab.)) in assay buffer. 15 μL of substrate in assay buffer was then added and the sample mixed to start the reaction. After 20 min at room temperature, 15 μL of a stop solution (0.1 M acetic acid) was added, the sample was mixed, and the plates were read on a SpectraMax® i3× Microplate Reader with the data exported as Excel files. Each assay plate included a “no inhibitor” (DMSO only) control, a “no enzyme” control, and a reference inhibitor control. % Activity values=100*(ave. test comp. fluorescence−ave. “no enz” fluorescence)/(ave. “DMSO only” fluorescence−ave. “no enz” fluorescence). IC50 and Ki values were very reproducible, with values falling well within +2-fold.

T1 sequence (O00187 287-686 limits assumed): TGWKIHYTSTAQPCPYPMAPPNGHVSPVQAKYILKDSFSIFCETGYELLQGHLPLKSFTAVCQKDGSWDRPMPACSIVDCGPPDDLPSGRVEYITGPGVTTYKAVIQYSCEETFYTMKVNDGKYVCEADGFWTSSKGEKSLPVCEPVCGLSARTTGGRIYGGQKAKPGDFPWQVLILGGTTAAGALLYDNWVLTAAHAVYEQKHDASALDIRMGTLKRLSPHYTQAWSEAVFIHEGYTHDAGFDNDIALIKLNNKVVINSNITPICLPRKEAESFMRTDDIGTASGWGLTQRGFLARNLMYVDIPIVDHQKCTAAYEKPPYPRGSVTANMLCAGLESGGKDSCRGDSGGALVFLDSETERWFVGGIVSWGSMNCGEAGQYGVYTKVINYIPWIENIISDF

Structure (SMILES) | Ki [1] [nM] | Ki [2] [nM]
Cc1nc(N)ccc1CNC(=O)[C@@H]1CCc2ncc(NCc3cccc(C(F)F)c3)c(=O)n21 [Compound 71, (S)—N-((6-amino-2-methylpyridin-3-yl)methyl)-3-((3-(difluoromethyl)benzyl)amino)-4-oxo-4,6,7,8-tetrahydropyrrolo[1,2-a]pyrimidine-6-carboxamide] | < 500 | 500 to 2500
Cc1nc(N)ccc1CNC(=O)[C@@H]1CCc2ncc(NCc3cnn(-c4ccccc4)c3)c(=O)n21 [Compound 24, (S)—N-((6-amino-2-methylpyridin-3-yl)methyl)-4-oxo-3-(((1-phenyl-1H-pyrazol-4-yl)methyl)amino)-4,6,7,8-tetrahydropyrrolo[1,2-a]pyrimidine-6-carboxamide, trifluoroacetate] | < 500 | 10000 to 25000
Cc1cc(C)cc(CNc2cnc3n(c2=O)[C@H](C(=O)NCc2cc(Cl)ccc2-n2cnnn2)CC3)c1 [Compound 5, (S)—N-(5-chloro-2-(1H-tetrazol-1-yl)benzyl)-3-((3,5-dimethylbenzyl)amino)-4-oxo-4,6,7,8-tetrahydropyrrolo[1,2-a]pyrimidine-6-carboxamide trifluoroacetic acid] | < 500 | < 500
COc1c(F)ccc(F)c1CNc1cnc2n(c1=O)[C@H](C(=O)NCc1ccc(N)nc1C)CC2 [Compound 36, (S)-N-((6-amino-2-methylpyridin-3-yl)methyl)-3-((3,6-difluoro-2-methoxybenzyl)amino)-4-oxo-4,6,7,8-tetrahydropyrrolo[1,2-a]pyrimidine-6-carboxamide, di-trifluoroacetate] | < 500 | 2500 to 10000
Cc1ccc(CNc2cnc3n(c2=O)[C@H](C(=O)NCc2ccc(N)nc2C)CC3)cc1 [Compound 61] | < 500 | 2500 to 10000
Cc1nc(N)ccc1CNC(=O)[C@@H]1CCc2ncc(NCc3ccccc3F)c(=O)n21 [Compound 68] | < 500 | 2500 to 10000
COc1cc(F)cc(CNc2cnc3n(c2=O)[C@H](C(=O)NCc2ccc(N)nc2C)CC3)c1 [Compound 49, (S)-N-((6-amino-2-methylpyridin-3-yl)methyl)-3-((3-fluoro-5-methoxybenzyl)amino)-4-oxo-4,6,7,8-tetrahydropyrrolo[1,2-a]pyrimidine-6-carboxamide, di-trifluoroacetate] | < 500 | < 500
Cc1cc(Cl)cc(CNc2cnc3n(c2=O)[C@H](C(=O)N[C@@H]2CCc4nc(N)ccc42)CC3)c1 [Compound 83, (S)—N—((R)-2-amino-6,7-dihydro-5H-cyclopenta[b]pyridin-5-yl)-3-((3-chloro-5-methylbenzyl)amino)-4-oxo-4,6,7,8-tetrahydropyrrolo[1,2-a]pyrimidine-6-carboxamide] | < 500 | < 500
Nc1ccc2c(n1)CC[C@H]2NC(=O)[C@@H]1CCc2ncc(NCc3cccc(-c4ccccc4)c3)c(=O)n21 [Compound 102] | < 500 | 10000 to 25000
Cc1cc(CNc2cnc3n(c2=O)[C@H](C(=O)NCc2ccc(N)nc2C)CC3)cc(C(F)(F)F)c1 [Compound 29, (S)-N-((6-amino-2-methylpyridin-3-yl)methyl)-3-((3-methyl-5-(trifluoromethyl)benzyl)amino)-4-oxo-4,6,7,8-tetrahydro-pyrrolo[1,2-a]pyrimidine-6-carboxamide, di-trifluoroacetate] | < 500 | 500 to 2500

Other lines, results leading:

Ki [1] [nM] | Ki [2] [nM] | Structure (SMILES)
< 500 | > 25000 | Cc1cc(C)cc(CNc2cnc3n(c2=O)[C@H](C(=O)N[C@@H](C)c2cc4c(s2)CNC4)CC3)c1 [Compound 107]
2500 to 10000 | > 25000 | Cc1cc(C)cc(CNc2cnc3n(c2=O)[C@@H](C(=O)NCc2ccc(N)nc2C)CC3)c1 [Compound 78]
< 500 | < 500 | COc1cc(Cl)cc(CNc2cnc3n(c2=O)[C@H](C(=O)NCc2ccc(N)nc2C)CC3)c1 [Compound 74, (S)-N-((6-amino-2-methylpyridin-3-yl)methyl)-3-((3-chloro-5-methoxybenzyl)amino)-4-oxo-4,6,7,8-tetrahydropyrrolo[1,2-a]pyrimidine-6-carboxamide]
< 500 | 500 to 2500 | Cc1nc(N)ccc1CNC(=O)[C@@H]1CCc2ncc(NCc3cccc(CC#N)c3)c(=O)n21 [Compound 80, (S)-N-((6-amino-2-methylpyridin-3-yl)methyl)-3-((3-(cyanomethyl)benzyl)amino)-4-oxo-4,6,7,8-tetrahydropyrrolo[1,2-a]pyrimidine-6-carboxamide]
< 500 | 2500 to 10000 | Cc1nc(N)ccc1CNC(=O)[C@@H]1CCc2ncc(NCc3ccc(C(F)(F)F)cc3F)c(=O)n21 [Compound 43, (S)-N-((6-amino-2-methylpyridin-3-yl)methyl)-3-((2-fluoro-4-(trifluoromethyl)benzyl)amino)-4-oxo-4,6,7,8-tetrahydro-pyrrolo[1,2-a]pyrimidine-6-carboxamide, di-trifluoroacetate]
< 500 | 2500 to 10000 | Cc1nc(N)ccc1CNC(=O)[C@@H]1CCc2ncc(NCc3cc(C(F)(F)F)ccc3F)c(=O)n21 [Compound 38, (S)-N-((6-amino-2-methylpyridin-3-yl)methyl)-3-((2-fluoro-5-(trifluoromethyl)benzyl)amino)-4-oxo-4,6,7,8-tetrahydro-pyrrolo[1,2-a]pyrimidine-6-carboxamide, di-trifluoroacetate]
< 500 | 500 to 2500 | Cc1nc(N)ccc1CNC(=O)[C@@H]1CCc2ncc(NCc3cccc(C#N)c3)c(=O)n21 [Compound 73, (S)-N-((6-amino-2-methylpyridin-3-yl)methyl)-3-((3-cyanobenzyl)amino)-4-oxo-4,6,7,8-tetrahydropyrrolo[1,2-a]pyrimidine-6-carboxamide]
< 500 | 500 to 2500 | Nc1ccc2c(n1)CC[C@H]2NC(=O)[C@@H]1CCc2ncc(NCc3cccc(C(F)F)c3)c(=O)n21 [Compound 84, (S)-N-((R)-2-amino-6,7-dihydro-5H-cyclopenta[b]pyridin-5-yl)-3-((3-(difluoromethyl)benzyl)amino)-4-oxo-4,6,7,8-tetrahydro-pyrrolo[1,2-a]pyrimidine-6-carboxamide]
< 500 | 10000 to 25000 | Cc1cccc(C(C)Nc2cnc3n(c2=O)[C@H](C(=O)NCc2cc4c(s2)CNC4)CC3)c1 (single isomer, unassigned) [Compound 70, di-trifluoroacetate]
< 500 | 500 to 2500 | Cc1cc(C)cc(CNc2cnc3n(c2=O)[C@H](C(=O)NCc2ccc(N)nc2C)CC3)c1 [Compound 1, (S)—N-((6-amino-2-methylpyridin-3-yl)methyl)-3-((3,5-dimethylbenzyl)amino)-4-oxo-4,6,7,8-tetrahydropyrrolo[1,2-a]pyrimidine-6-carboxamide]
< 500 | 500 to 2500 | Cc1cccc(CNc2cnc3n(c2=O)[C@H](C(=O)NCc2ccc(N)nc2C)CC3)c1C [Compound 30, (S)-N-((6-amino-2-methylpyridin-3-yl)methyl)-3-((2,3-dimethylbenzyl)amino)-4-oxo-4,6,7,8-tetrahydropyrrolo[1,2-a]pyrimidine-6-carboxamide, trifluoroacetate]
< 500 | 500 to 2500 | Cc1nc(N)ccc1CNC(=O)[C@@H]1CCc2ncc(NCc3cccc(F)c3C)c(=O)n21 [Compound 63]
